Source: PMC6199744, “Development of Chemical Proteomics for the Folateome and Analysis of the Kinetoplastid Folateome” (ACS Infectious Diseases, 2018)
Like-named read-outs stand apart in the source and are kept apart here.

Assays:
Assay type in all cases: binding
[1] = target: T1, HeLa cell extract proteins (Homo sapiens, UniProt Q03393)
T1 construct: endogenous in cells; host or cells: HeLa cell extract
T1 sequence (Q03393 1-145): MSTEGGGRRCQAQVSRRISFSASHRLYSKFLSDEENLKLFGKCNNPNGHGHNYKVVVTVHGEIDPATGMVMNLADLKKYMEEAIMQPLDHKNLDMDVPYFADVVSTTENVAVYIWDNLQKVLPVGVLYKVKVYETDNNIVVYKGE

[2] = target: T2, HeLa cell extract proteins (Homo sapiens, UniProt P27824)
T2 construct: endogenous in cells; host or cells: HeLa cell extract
T2 sequence (P27824 21-592): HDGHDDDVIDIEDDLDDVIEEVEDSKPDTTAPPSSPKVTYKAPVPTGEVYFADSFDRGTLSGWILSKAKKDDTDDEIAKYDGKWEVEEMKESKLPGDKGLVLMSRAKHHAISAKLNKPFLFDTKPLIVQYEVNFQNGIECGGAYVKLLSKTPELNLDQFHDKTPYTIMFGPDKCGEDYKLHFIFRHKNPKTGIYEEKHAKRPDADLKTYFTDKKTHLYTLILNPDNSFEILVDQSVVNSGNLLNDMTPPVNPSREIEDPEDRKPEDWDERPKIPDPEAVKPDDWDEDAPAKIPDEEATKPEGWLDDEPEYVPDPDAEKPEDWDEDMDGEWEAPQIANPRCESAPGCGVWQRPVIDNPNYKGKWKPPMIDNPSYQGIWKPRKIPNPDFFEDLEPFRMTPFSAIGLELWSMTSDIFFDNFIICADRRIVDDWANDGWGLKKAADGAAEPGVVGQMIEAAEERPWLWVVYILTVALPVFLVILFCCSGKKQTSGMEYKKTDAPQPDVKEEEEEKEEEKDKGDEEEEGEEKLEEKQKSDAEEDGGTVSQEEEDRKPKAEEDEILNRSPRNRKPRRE

[3] = target: T3, HeLa cell extract proteins (Homo sapiens, UniProt Q53GQ0)
T3 construct: endogenous in cells; host or cells: HeLa cell extract
T3 sequence (Q53GQ0 1-312): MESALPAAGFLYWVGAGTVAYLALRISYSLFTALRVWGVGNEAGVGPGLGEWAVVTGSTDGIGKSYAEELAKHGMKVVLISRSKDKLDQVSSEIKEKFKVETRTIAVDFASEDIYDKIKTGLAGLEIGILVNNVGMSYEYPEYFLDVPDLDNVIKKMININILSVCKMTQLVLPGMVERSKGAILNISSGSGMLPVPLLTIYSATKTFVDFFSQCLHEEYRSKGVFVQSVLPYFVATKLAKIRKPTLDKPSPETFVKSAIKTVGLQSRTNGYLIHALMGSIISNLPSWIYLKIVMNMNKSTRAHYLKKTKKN

[4] = target: T4, HeLa cell extract proteins (Homo sapiens, UniProt Q7L1Q6)
T4 construct: endogenous in cells; host or cells: HeLa cell extract
T4 sequence (Q7L1Q6 1-419): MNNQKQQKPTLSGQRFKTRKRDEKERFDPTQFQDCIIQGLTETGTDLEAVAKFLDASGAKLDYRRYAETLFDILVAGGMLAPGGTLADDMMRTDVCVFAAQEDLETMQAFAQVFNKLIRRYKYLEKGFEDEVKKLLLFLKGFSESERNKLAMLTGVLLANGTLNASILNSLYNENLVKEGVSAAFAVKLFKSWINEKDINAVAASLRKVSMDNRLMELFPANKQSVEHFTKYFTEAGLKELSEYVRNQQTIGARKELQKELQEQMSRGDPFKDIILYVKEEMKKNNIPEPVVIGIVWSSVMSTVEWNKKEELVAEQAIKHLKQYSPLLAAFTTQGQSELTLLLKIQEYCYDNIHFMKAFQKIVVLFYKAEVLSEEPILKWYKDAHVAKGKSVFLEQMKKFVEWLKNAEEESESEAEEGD

[5] = target: T5, HeLa cell extract proteins (Homo sapiens, UniProt Q8IUH3)
T5 construct: endogenous in cells; host or cells: HeLa cell extract
T5 sequence (Q8IUH3 1-476): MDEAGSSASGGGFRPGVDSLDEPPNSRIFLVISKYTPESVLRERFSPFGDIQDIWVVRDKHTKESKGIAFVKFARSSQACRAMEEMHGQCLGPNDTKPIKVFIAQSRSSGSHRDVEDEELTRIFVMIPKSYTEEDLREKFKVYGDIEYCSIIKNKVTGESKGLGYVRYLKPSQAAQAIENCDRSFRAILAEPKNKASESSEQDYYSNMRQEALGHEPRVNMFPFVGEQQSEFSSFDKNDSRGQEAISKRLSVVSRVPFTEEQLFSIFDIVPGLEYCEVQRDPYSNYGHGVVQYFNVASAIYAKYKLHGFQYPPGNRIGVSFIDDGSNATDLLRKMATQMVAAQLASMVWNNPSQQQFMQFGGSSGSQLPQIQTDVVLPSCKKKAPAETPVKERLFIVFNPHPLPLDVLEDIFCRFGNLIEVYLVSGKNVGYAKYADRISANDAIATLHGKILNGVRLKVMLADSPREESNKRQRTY

[6] = target: T6, HeLa cell extract proteins (Homo sapiens, UniProt Q15392)
T6 construct: endogenous in cells; host or cells: HeLa cell extract
T6 sequence (Q15392 23-516): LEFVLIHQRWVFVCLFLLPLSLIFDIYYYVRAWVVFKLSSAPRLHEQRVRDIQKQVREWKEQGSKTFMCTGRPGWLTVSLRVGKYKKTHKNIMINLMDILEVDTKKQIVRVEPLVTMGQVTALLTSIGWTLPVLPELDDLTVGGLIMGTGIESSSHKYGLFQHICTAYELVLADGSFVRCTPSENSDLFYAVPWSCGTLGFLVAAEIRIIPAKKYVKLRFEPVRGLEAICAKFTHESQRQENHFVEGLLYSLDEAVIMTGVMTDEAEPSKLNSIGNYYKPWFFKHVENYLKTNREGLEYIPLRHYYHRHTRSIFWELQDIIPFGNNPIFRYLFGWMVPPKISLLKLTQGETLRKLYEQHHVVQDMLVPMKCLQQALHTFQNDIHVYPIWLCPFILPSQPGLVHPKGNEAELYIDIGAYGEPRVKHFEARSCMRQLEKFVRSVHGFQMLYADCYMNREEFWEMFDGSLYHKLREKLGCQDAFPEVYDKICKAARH

[7] = target: T7, HeLa cell extract proteins (Homo sapiens, UniProt Q71U36)
T7 construct: endogenous in cells; host or cells: HeLa cell extract

[8] = captured protein HSD17B12, HeLa
[9] = HeLa, protein RBM45 (ISOFORM 1 OF DEVELOPMENTALLY-REGULATED RNA-BINDING PROTEIN 1)
[10] = HeLa, protein DHCR24 (24-DEHYDROC[…] PRECURSOR)

T7 sequence (Q71U36 whole entry): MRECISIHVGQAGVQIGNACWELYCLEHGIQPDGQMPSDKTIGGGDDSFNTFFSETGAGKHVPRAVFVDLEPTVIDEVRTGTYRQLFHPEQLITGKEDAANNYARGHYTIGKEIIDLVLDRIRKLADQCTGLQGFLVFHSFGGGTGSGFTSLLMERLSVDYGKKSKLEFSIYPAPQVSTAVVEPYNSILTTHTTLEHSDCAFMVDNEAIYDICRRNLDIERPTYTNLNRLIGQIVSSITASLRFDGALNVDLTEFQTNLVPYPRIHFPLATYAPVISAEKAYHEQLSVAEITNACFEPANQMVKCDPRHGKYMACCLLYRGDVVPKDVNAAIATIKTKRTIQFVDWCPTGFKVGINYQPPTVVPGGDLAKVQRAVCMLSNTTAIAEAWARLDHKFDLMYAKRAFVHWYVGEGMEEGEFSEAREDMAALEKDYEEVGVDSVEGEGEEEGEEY

Row | Compound | fold changes relative to vehicle control ([1]; captured protein PTS, HeLa) | fold changes relative to vehicle control ([2]; protein CANX, HeLa) | fold changes relative to vehicle control [3, 8] | fold changes relative to vehicle control ([4]; protein BZW1, HeLa) | fold changes relative to vehicle control ([5]; HeLa, protein RBM45) | fold changes relative to vehicle control ([6]; protein DHCR24, HeLa) | fold changes relative to vehicle control ([7]; HeLa, protein TUBA1A) | fold changes relative to vehicle control ([1]; protein PTS, HeLa) | fold changes relative to vehicle control ([2]; HeLa, captured protein CANX) | fold changes relative to vehicle control ([3]; protein HSD17B12, HeLa) | fold changes relative to vehicle control ([4]; HeLa, protein BZW1) | fold changes relative to vehicle control [5, 9] | also measured
1 | Nc1nc2cccc(-c3ccccc3)c2n1Cc1ccc(Cl)c(Cl)c1 [compound 3] | 1.1 | 0.92 | 1.15 | 0.91 | 0.96 | 1.02 | 1.06 |  |  |  |  |  | 
2 | CCCCCCOc1ccc(Cc2cnc(N)nc2N)cc1 [compound 1] | 0.72 | 1.3 | 0.87 | 1.09 | 1.06 | 1.03 | 0.95 |  |  |  |  |  | 
3 | NCCCNc1ccc(C(=O)NC(CCC(=O)O)C(=O)O)cc1 (stereo not shown) [compound 7] |  |  |  |  |  |  | 1 | 1.03 | 1.06 | 1.19 | 0.98 | 0.96 | fold changes relative to vehicle control [6, 10]: 1.03
4 | CCCCCCOc1cccc(Cc2cnc(N)nc2N)c1 [compound 2] | 1.01 | 2.38 | 0.91 | 1.52 | 0.99 | 0.83 | 0.92 |  |  |  |  |  | 
5 | NCCOCCOCC(=O)Nc1nc2ncc(CNc3ccc(C(=O)NC(CCC(=O)O)C(=O)O)cc3)nc2c(=O)[nH]1 (stereo not shown) [compound 6] |  |  |  |  |  |  | 0.97 | 0.39 | 1.35 | 0.96 | 1.21 | 1 | fold changes relative to vehicle control ([6]; HeLa, protein DHCR24 (24-DEHYDROCHOLESTEROL REDUCTASE PRECURSOR)): 0.88
6 | Nc1nc2[nH]cc(CCc3ccc(C(=O)N[C@@H](CCC(=O)O)C(=O)O)cc3)c2c(=O)[nH]1 [PTX, pemetrexed] |  |  |  |  |  |  |  |  |  |  |  |  | fold changes relative to vehicle control [1]: 0.23; fold changes relative to vehicle control [2]: 1.25; fold changes relative to vehicle control [3]: 0.91; fold changes relative to vehicle control [4]: 1.09; fold changes relative to vehicle control [5]: 1.04; fold changes relative to vehicle control [6]: 1.05; fold changes relative to vehicle control [7]: 0.91
7 | Nc1nc2c(c(=O)[nH]1)N(C=O)C(CNc1ccc(C(=O)N[C@@H](CCC(=O)O)C(=O)O)cc1)CN2 (stereo partly shown) [LEU, leucovorin] |  |  |  |  |  |  | 0.95 | 0.83 | 1.09 | 0.78 | 1.01 | 1.12 | fold changes relative to vehicle control [6, 10]: 1.13
